Data as given in patent publication US8895585B2, “Nicotinamide derivative or salt thereof” (FUJIFILM Corporation, priority 2010, dated 2014).

Tests used:
female Lewis rats = assay: Rat type-II-collagen-induced arthritis; type: in vivo; conditions: oral administration at 10 mg/kg/day, once daily Day 7 to Day 20, hindlimb volume by plethysmometer, read-out: inhibition of hindlimb swelling compared with the control group
Protocol: The compounds were tested to examine effects upon rat type II collagen arthritis. To 3 mg/mL bovine type II collagen solution (Collagen Gijutsu Kenshu-Kai) dissolved in 0.05 mol/L acetic acid, an equal amount of Freund's incomplete adjuvant (Wako Pure Chemical Industries, Ltd.) was added to prepare an emulsion. A portion of the emulsion (0.5 ml) was intradermally injected into the tail bases of 7- or 8-week-old female Lewis rats (Charles River Laboratories Japan, Inc.) (Day 0). Each rat was subjected to the same treatment on Day 7 after the initial inoculation so as to induce arthritis. Each test compound was orally administered from Day 7 to Day 20 once daily. At a given time during the period from Day 7 to Day 21, the rat hindlimb volume was determined using a plethysmometer (UGO BASILE), and the result was designated as an arthritis index. The following compound group inhibited hindlimb swelling by 85% or greater compared with the control group in the case of oral administration at 10 mg/kg/day: the compounds of Example 4-17, Example 6-49, Example 6-117, Example 6-157, Example 6-249, Example 6-322, Example 6-375, and Example 6-395.

male DBA/1J mice = assay: Mouse type-II collagen-induced arthritis (prophylactic and therapeutic administration test); type: in vivo; conditions: for advancement of arthritis after the onset (arthritis score): prophylactic administration test, once daily Day 21 to Day 34, 1 to 30 mg/kg/day
Protocol: The compounds synthesized in Example 8-1, Example 4-17, and Example 6-49 were tested to examine effects upon mouse type II collagen arthritis. To 2 mg/mL bovine type II collagen solution (Koken Co., Ltd.) dissolved in 0.1 mol/L acetic acid, an equal amount of Freund's complete adjuvant (Wako Pure Chemical Industries, Ltd.) was added to prepare an emulsion. A portion of the emulsion was intradermally injected into the tail bases of 7- or 8-week-old male DBA/1J mice (Charles River Laboratories Japan, Inc.) at a dose of 0.2 mL per mouse (antigen amount: 0.2 mg/mouse) on Day 0 and Day 21 twice, so as to induce arthritis. Each compound was administered once daily from Day 21 to Day 34 in the prophylactic administration test (1 to 30 mg/kg/day), and administered once daily from Day 27 to Day 35 in the therapeutic administration test (25 mg/kg/day). Arthritis scores for four limbs for each mouse were determined starting from Day 21. Specifically, the total score of four limbs of a mouse was designated as the individual arthritis score (12 points at a maximum per mouse) based on the following: score 0: no change; score 1: swelling of 1 or 2 digit joints or mild swelling of the carpal region/the ankle region alone; score 2: swelling of joints of at least 3 digits or obvious swelling of the carpal region/the ankle region; and score 3: obvious swelling over forelimbs or hindlimbs.

[1] = tested on: 170 types of kinases excluding Syk; assay: Kinase selectivity, Profiler Pro kits (Caliper); type: biochemical; conditions: test compound 100 nM
Protocol: The concentrations of test compounds were adjusted to 100 nM. The test compounds were examined using Profiler Pro kits (Caliper) in terms of activity against each of 170 types of kinases excluding Syk. […] A compound (Example 6-157) having a kinase inhibitory rate of 75% or more with respect to 12 types of kinases was also obtained. Further, an inhibitor (Example 6-373) having a kinase inhibitory rate of 75% or more with respect to 24 types of kinases was obtained.

female BALB/c mice = assay: Mouse type-II-collagen-antibody-induced arthritis; type: in vivo; conditions: intraperitoneal 30 mg/kg/day, twice daily, Day 0 to Day 13
Protocol: The compound synthesized in Example 8-1 was tested to examine effects upon mouse-type-II-collagen-antibody-induced arthritis. An anti-type II collagen antibody mixture (Chondrex) was intraperitoneally injected into 7-week-old female BALB/c mice (Charles River Laboratories Japan, Inc.) (1.5 mg per mouse) (Day 0). An LPS solution 0111:B4 (Chondrex) (50 μg) was intraperitoneally injected thereinto three days later (Day 3), thereby inducing arthritis. Swelling scores were determined for four limbs of each mouse once daily from Day 3 to Day 14. Specifically, evaluation was carried out using a twelve-point scale for the sum of the scores for the four limbs for each mouse: 0 point: no change; 1 point: mild erythema/swelling on the carpal region or the ankle/calcaneal region; 2 points: obvious swelling on the carpal region or the ankle/calcaneal region; 3 points: severe swelling over forelimbs or hindlimbs. The compound synthesized in Example 8-1 was intraperitoneally administered at 30 mg/kg/day twice daily on consecutive days (from Day 0 to Day 13). The bone destruction score was determined based on soft X-ray images of four limbs taken on Day 14. […]

[2] = target: T1, glutathione S-transferase (GST)-fused full-length human Syk protein (Homo sapiens, UniProt P43405); assay: Syk enzyme assay; type: biochemical; conditions: read-out: Syk-inhibitory activity (IC50)
T1 construct: (GST)-fused full-length human Syk protein; GST (glutathione S-transferase); purchased Carna Biosciences
Procedure, shortened: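 IC50 values come from a time-resolved FRET readout (615 and 665 nm) of substrate phosphorylation, measured after an EDTA stop and 1 h antibody binding. The kinase reaction ran 40 min at room temperature with 27 μM ATP and 0.4 μM biotin-peptide, following a 15 min compound preincubation with baculovirus-made GST-full-length human Syk.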

Structure (SMILES) | inhibition in vivo at 10 mg/kg/day (female Lewis rats) [%] | advancement of arthritis after the onset (arthritis score) (male DBA/1J mice) | advancement of arthritis (arthritis score) (male DBA/1J mice; therapeutic administration test, once daily Day 27 to Day 35, 25 mg/kg/day) | number of kinases with kinase inhibitory rate of 75% or more [1] | increase in the swelling score (female BALB/c mice; scored Day 3 to Day 14) | increase in the bone destruction score (female BALB/c mice; soft X-ray images on Day 14) | IC50 [2] [nM]
Cc1cncc(Nc2nc(N[C@@H]3CCCC[C@@H]3N)c(F)cc2C(N)=O)c1 (relative stereo) [Example 6-49, 6-(cis-2-aminocyclohexylamino)-5-fluoro-2-(5-methylpyridin-3-ylamino)nicotinamide] | ≥ 85 | strongly inhibited | strongly inhibited |  |  |  | 
COCCOc1cc(Nc2nc(N[C@@H](CN)CC(C)C)c(F)cc2C(N)=O)ccn1 [Example 6-157] | ≥ 85 |  |  | 12 types of kinases |  |  | 
C[C@H](N)[C@H](Nc1nc(Nc2cncc(-n3cccn3)c2)c(C(N)=O)cc1F)C1CC1 [Example 6-373, 2-((5-(1H-pyrazol-1-yl)pyridin-3-yl)amino)-6-(((1R,2S)-2-amino-1-cyclopropylpropyl)amino)-5-fluoronicotinamide] |  |  |  | 24 types of kinases |  |  | 
COc1cc(Nc2nc(NCCN)c(F)cc2C(N)=O)cc(OC)c1 [Example 8-1, 6-(2-aminoethylamino)-2-(3,5-dimethoxyphenylamino)-5-fluoronicotinamide] |  | strongly inhibited |  |  | almost completely inhibited | almost completely inhibited | ≤ 1000
